Data reported in ChEMBL document CHEMBL4354877, “MymA Bioactivated Thioalkylbenzoxazole Prodrug Family Active against Mycobacterium tuberculosis” (J Med Chem, 2020).
Converted amounts (≈) assume the structure as drawn. The source made the active and inactive calls. The calls are words filed in the database; no cut-off is given here.

Key:
[1] = Intrinsic clearance in mouse liver microsomes at 0.5 uM incubated for 45 mins in presence of NADPH by LC-MS/MS analysis; format: ADME, Microsome; conditions: 0.75 h
[2] = Intrinsic clearance in human liver microsomes at 0.5 uM incubated for 45 mins in presence of NADPH by LC-MS/MS analysis; format: ADME, Microsome; conditions: 0.75 h
[3] = system: Mycobacterium tuberculosis; test: Antimycobacterial activity against Mycobacterium tuberculosis H37Rv intracellular forms infected in human THP1 cells assessed as inhibition of microbial growth incubated for 5 days by luciferase reporter gene assay; format: functional; conditions: THP-1, 120 h
[4] = system: Mycobacterium tuberculosis; test: Antimycobacterial activity against Mycobacterium tuberculosis extracellular forms assessed as inhibition of microbial growth; format: functional
[5] = Permeability at pH 7.4 incubated for 4 hrs by PAMPA method; format: ADME; conditions: read-out: permeability
[6] = Kinetic aqueous solubility in pH 7.4 PBS incubated for 1 hr by CLND assay; format: physicochemical; conditions: read-out: Kinetic_solubility
[7] = Solubility in pH 6.5 FaSSIF incubated for 4 hrs by HPLC-UV based assay; format: physicochemical
HepG2 = test: Cytotoxicity in human HepG2 cells assessed as reduction in cell viability incubated for 48 hrs by Cell-titer Glo kit based assay; conditions: HepG2, 48 h
[8] = system: Mycobacterium tuberculosis; test: Antimycobacterial activity against Mycobacterium tuberculosis H37Rv infected in C57BL/6 mouse model of acute infection assessed as reduction in mycobacterial load in lung at 200 mg/kg dosed once per day for 8 days co-dosed with 50 mg/kg/day CYP inhibitor ABT; format: functional, organism-based
Cytochrome P450 3A4 [9] = molecular target: T1, Cytochrome P450 3A4 (Homo sapiens, UniProt P08684); test: Inhibition of CYP3A4 (unknown origin) in absence of cofactor; format: ADME
Hepatocyte = test: Cytotoxicity in human primary hepatocytes assessed as reduction in cell viability up to 100 uM incubated for 72 hrs by MTT assay; format: cell-based
[10] = system: Mycobacterium tuberculosis; test: Antimycobacterial activity against Mycobacterium tuberculosis H37Rv assessed as inhibition of microbial growth incubated for 6 days by alamar blue resazurin assay; format: functional; conditions: 144 h
Cytochrome P450 3A4 [11] = molecular target: T1, Cytochrome P450 3A4; test: Inhibition of CYP3A4 (unknown origin) in presence of cofactor; format: ADME
THP-1 = test: Cytotoxicity in human THP1 cells assessed as reduction in cell viability incubated for 5 days hrs by ATPLite assay; format: cell-based; conditions: THP-1, 120 h
[12] = Stability in human liver microsomes assessed as GSH-conjugates formation at 25 uM incubated for 60 mins in presence of NADPH and GSH by LC-MS/MS analysis; format: ADME, Microsome; conditions: 1 h

T1 sequence (P08684 whole entry): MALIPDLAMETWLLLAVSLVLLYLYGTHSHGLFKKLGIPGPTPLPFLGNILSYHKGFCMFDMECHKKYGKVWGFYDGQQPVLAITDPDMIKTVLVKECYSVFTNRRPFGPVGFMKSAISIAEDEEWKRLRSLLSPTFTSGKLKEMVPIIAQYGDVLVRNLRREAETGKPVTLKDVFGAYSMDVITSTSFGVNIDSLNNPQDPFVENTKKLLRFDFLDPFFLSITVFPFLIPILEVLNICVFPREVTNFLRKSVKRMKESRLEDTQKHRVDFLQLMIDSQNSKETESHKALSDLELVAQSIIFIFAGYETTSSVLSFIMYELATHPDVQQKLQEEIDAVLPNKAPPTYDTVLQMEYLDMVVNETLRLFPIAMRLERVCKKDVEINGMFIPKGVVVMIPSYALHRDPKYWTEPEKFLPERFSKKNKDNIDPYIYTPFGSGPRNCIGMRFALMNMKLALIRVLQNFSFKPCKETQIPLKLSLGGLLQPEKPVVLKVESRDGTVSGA

Compound | CLH [1] | CLH [2] | IC90 [3] | further results
CS(=O)(=O)C1CCN(C(=O)CCSc2nc3cc(Cl)ccc3o2)C1 (racemic) | 2.1 mL/min/g | < 0.4 mL/min/g | > 50 µM | 
O=C(CCSc1nc2cc(Cl)ccc2o1)N1CCC(F)(F)C1 | 83.6 mL/min/g | 11.3 mL/min/g | 1.1 µM | 
CN1CCN(C(=O)CCSc2nc3cc(Cl)ccc3o2)CC1 | 41.5 mL/min/g | 1.5 mL/min/g | 17.2 µM | 
O=C(CCSc1nc2cnccc2o1)N1CCCC1 | 3.1 mL/min/g | 0.6 mL/min/g | 35.1 µM | 
O=C(CCSc1nc2cc(F)ccc2o1)N1CCCC1 | 115.2 mL/min/g | 5.2 mL/min/g | 1.6 µM | 
O=C(CCSc1nc2ccccc2o1)N1CCCC1 | 161.2 mL/min/g | 5.1 mL/min/g | 4.4 µM | 
CN(C(=O)CCSc1nc2cc(Cl)ccc2o1)C1CCS(=O)(=O)CC1 | 0.7 mL/min/g | < 0.4 mL/min/g | 7.7 µM | MIC [4]: 40 µM; Papp at 4 h [5]: 44 ×10⁻⁶ cm/s; solubility kinetic at 1 h [6]: > 328 µM; solubility at 4 h [7]: 178 µg/mL (≈ 442 µM); IC50 (HepG2): > 100 µM
O=C(CCSc1nc2cc(F)ccc2o1)N1CCS(=O)(=O)CC1 | 1.5 mL/min/g | 0.4 mL/min/g | > 50 µM | 
O=C(CCSc1nc2c(Cl)cccc2o1)N1CCCC1 | 97.9 mL/min/g | 15.8 mL/min/g | 24.3 µM | 
O=S1(=O)CCCN1CCCSc1nc2cc(Cl)ccc2o1 | 115.2 mL/min/g | 4.7 mL/min/g | 7.7 µM | 
CS(=O)(=O)C1CCN(C(=O)CCSc2nc3cc(Cl)ccc3o2)CC1 | 2.6 mL/min/g | 0.5 mL/min/g | > 50 µM | 
CC1CCN(C(=O)CCSc2nc3cc(Cl)ccc3o2)C1 (stereo not drawn) | 90.7 mL/min/g | 10.1 mL/min/g | 3.1 µM | 
O=C(CCSc1nc2cc(Cl)ccc2o1)N1CCS(=O)(=O)C1 | 8.9 mL/min/g | 1.7 mL/min/g | > 50 µM | 
CN(C(=O)CCSc1nc2cc(Cl)ccc2o1)C1CCS(=O)(=O)C1 (stereo not drawn) | 0.8 mL/min/g | 1.5 mL/min/g | 25.4 µM | 
O=C(CCSc1nc2cc(F)c(F)cc2o1)N1CCCC1 | 45.9 mL/min/g | 6.5 mL/min/g | 1.3 µM | 
Cc1ccc2oc(SCCC(=O)N3CCCC3)nc2c1 |  | 9.3 mL/min/g | 8.4 µM | 
O=C(CCSc1nc2cc(Cl)ccc2o1)N1CCOCC1 | 36.5 mL/min/g | 2.2 mL/min/g | 11.4 µM | 
O=C(CCSc1nc2ccc(Cl)cc2o1)N1CCCC1 | 109.4 mL/min/g | 6.6 mL/min/g | 1.6 µM | 
O=C(CCSc1nc2cc(Cl)ccc2o1)N1CCC1 | 17.9 mL/min/g | 3.7 mL/min/g | > 50 µM | 
CN(C)C(=O)CCSc1nc2cc(Cl)ccc2o1 | 41.8 mL/min/g | 2.7 mL/min/g | 30 µM | 
Clc1ccc2oc(SCCCN3CCCC3)nc2c1 | 10.4 mL/min/g | 1.9 mL/min/g | 42.6 µM | 
O=C(CCSc1nc2cc(Cl)ccc2o1)N1CCCC1 | 131 to 132 mL/min/g | 5.8 mL/min/g | 2.8 µM | MIC [4]: 10 µM; Papp at 4 h [5]: 78 ×10⁻⁶ cm/s; Activity [8]: inactive; solubility kinetic at 1 h [6]: > 362 µM; IC50 (Cytochrome P450 3A4 [9]): > 39.8 µM; Activity (Hepatocyte): Non-Toxic; MIC [10]: 10 µM; solubility at 4 h [7]: 8 µg/mL (≈ 25.7 µM); IC50 (HepG2): > 100 µM; IC50 (Cytochrome P450 3A4 [11]): > 39.8 µM; IC50 (THP-1): > 50 µM; Stability [12]: Stable
O=C(CCSc1nc2cc(Cl)ccc2[nH]1)N1CCCC1 | 56.8 mL/min/g | 9.2 mL/min/g | > 50 µM | 
O=C(CCSc1nc2ncccc2o1)N1CCCC1 | 18.6 mL/min/g | 0.7 mL/min/g | > 50 µM | 
COc1ccc2oc(SCCC(=O)N3CCCC3)nc2c1 | 197.8 mL/min/g | 6.1 mL/min/g | 4 µM | 

Compound | CLH [1] | CLH [2] | IC90 [3] | further results
O=C(CCNc1nc2cc(Cl)ccc2o1)N1CCCC1 | 81.1 mL/min/g | 2.3 mL/min/g | > 50 µM | 
CC1CCCN1C(=O)CCSc1nc2cc(Cl)ccc2o1 (racemic) | 98 mL/min/g | 8.5 mL/min/g | 25.5 µM | 
CS(=O)(=O)N1CCN(C(=O)CCSc2nc3cc(Cl)ccc3o2)CC1 | 1.4 mL/min/g | 0.6 mL/min/g | 20.4 µM | 
O=C(CCSc1nc2cc(Cl)ccc2o1)N1CCCCC1 | 127.7 mL/min/g | 10.7 mL/min/g | 2.5 µM | 
CCNC(=O)CCSc1nc2cc(Cl)ccc2o1 |  |  | > 50 µM | 
O=C(CCCSc1nc2cc(Cl)ccc2o1)N1CCCC1 | 124.8 mL/min/g | 3.4 mL/min/g | 2.3 µM | 
O=C(CCSc1nc2cc(Cl)ccc2o1)NC1CCCC1 |  | 11.3 mL/min/g | > 50 µM | 
CN(CCC(=O)N1CCCC1)c1nc2cc(Cl)ccc2o1 |  | 1.9 mL/min/g | > 50 µM | 
O=C(CSc1nc2cc(Cl)ccc2o1)N1CCCC1 | 153.6 mL/min/g | 1.6 mL/min/g | 36 µM | 
CC(CC(=O)N1CCCC1)Sc1nc2cc(Cl)ccc2o1 (stereo not drawn) | 165.1 mL/min/g | 8.6 mL/min/g | 4 µM | 
O=C(CCSc1nc2cc(Cl)ccc2s1)N1CCCC1 | 67 mL/min/g | 15 mL/min/g | 15.6 µM | 
O=C(CCSc1nc(-c2ccccc2)co1)N1CCCC1 |  | 20.9 mL/min/g | > 50 µM | 
O=C1CCCN1CCCSc1nc2cc(Cl)ccc2o1 | 51 mL/min/g | 4.8 mL/min/g | 6.5 µM | 
CCN(CC)C(=O)CCSc1nc2cc(Cl)ccc2o1 | 107.5 mL/min/g | 5.9 mL/min/g | 3.9 µM | 
CN(C(=O)CCSc1nc2cc(F)ccc2o1)C1CCS(=O)(=O)CC1 | 0.6 mL/min/g | < 0.4 mL/min/g | > 50 µM | 
O=C(CCSc1ncc(-c2ccccc2)o1)N1CCCC1 | 176.6 mL/min/g | 11 mL/min/g | > 50 µM | 
O=C(CCSc1nc2cc(Cl)ccc2o1)N1CCS(=O)(=O)CC1 | 2.3 mL/min/g | 0.4 mL/min/g | > 50 µM | 
Cc1nc(SCCC(=O)N2CCCC2)oc1C | 3.9 mL/min/g | < 0.4 mL/min/g | > 50 µM | 
O=C(CSCc1nc2cc(Cl)ccc2o1)N1CCCC1 | 71.8 mL/min/g | 1.5 mL/min/g | > 50 µM | 
O=C(CCCc1nc2cc(Cl)ccc2o1)N1CCCC1 | 115.2 mL/min/g | 1.4 mL/min/g | > 50 µM | 
CSc1nc2cc(Cl)ccc2o1 | > 46.1 mL/min/g | 19 mL/min/g | > 50 µM | 
O=C(CCSc1nc2cc(N3CCOCC3)ccc2o1)N1CCCC1 | 18.7 mL/min/g | 1.1 mL/min/g | 27.2 µM | 
O=C(CCSc1nc2cccc(Cl)c2o1)N1CCCC1 | 121.9 mL/min/g | 13.5 mL/min/g | 2.7 µM | 
O=C(CCSc1nc2ccncc2o1)N1CCCC1 | 5.7 mL/min/g | 0.9 mL/min/g | > 50 µM | 
